From ChEMBL document CHEMBL1201862, “PubChem BioAssay data set” (2004)
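1) Cells in 96-well plates. 2) Compound, 48 h, 5 concentrations. 3) Linear interpolation between surrounding doses. 4) Unreached endpoint = highest concentration. GI50 marks 50% less growth.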 Activity calls are given as the source filed them. No stated cut-off is given here; in the data, active = GI50 up to about 1.1 µM and inactive = higher.

Experiments:
Assay in all cases: NCI-60 cell line screen, 48 h
[1] = test system: K562
[2] = test system: MCF7
[3] = test system: UO-31
[4] = test system: KM12
[5] = test system: U-251
[6] = test system: Hs-578T
[7] = test system: SK-OV-3
[8] = test system: SK-MEL-2
[9] = test system: TK-10
[10] = test system: SF-295
[11] = test system: SNB-19
[12] = test system: SK-MEL-28
[13] = test system: RPMI-8226
[14] = test system: NCI-H23
[15] = test system: CAKI-1
[16] = test system: T47D
[17] = test system: OVCAR-4
[18] = test system: DU-145
[19] = test system: A498
[20] = test system: PC-3

Measured: GI50

NS(=O)(=O)c1nnc(NC(=O)Nc2ccc(Cl)c(Cl)c2)s1
inactive: [1] 31.3 µM | [2] 26.9 µM | [3] 27.4 µM | [4] 26.9 µM | [5] 29.4 µM | [6] 29.2 µM | [7] 20.6 µM | [8] 25.4 µM | [9] 20.6 µM | [10] 31.7 µM | [11] 21 µM | [12] 17.1 µM | [13] 17.5 µM | [14] 18 µM | [15] 25.9 µM | [16] 19.9 µM | [17] 30.6 µM | [18] 29.4 µM | [19] 22 µM

COc1ccc2c(c1)CCN1CCc3cc(OC)c(OC)cc3CC21 (configuration not stated)
inactive: [1] 34.9 µM | [2] 90.4 µM | [3] 31.8 µM | [4] 88.5 µM | [5] 72.3 µM | [6] 89.5 µM | [7] > 100 µM | [9] > 100 µM | [10] > 100 µM | [11] 82 µM | [12] > 100 µM | [13] 65.5 µM | [14] 98.9 µM | [15] > 100 µM | [16] 73.3 µM | [17] > 100 µM | [18] > 100 µM | [19] > 100 µM

NC(=O)NC(=O)c1cccc(CNc2ccc(C(=O)N[C@@H](CCC(=O)O)C(=O)O)cc2)n1
inactive: [1] > 100 µM | [2] > 100 µM | [3] > 100 µM | [4] > 100 µM | [5] > 100 µM | [6] > 100 µM | [7] > 100 µM | [8] > 100 µM | [9] > 100 µM | [10] > 100 µM | [12] > 100 µM | [13] > 100 µM | [14] > 100 µM | [15] > 100 µM | [17] > 100 µM | [20] > 100 µM | [18] > 100 µM

O=C(Nc1ccccc1)N1CCNC1=S
inactive: [1] > 100 µM | [2] > 100 µM | [3] 57.3 µM | [4] > 100 µM | [5] > 100 µM | [6] 48 µM | [7] > 100 µM | [8] > 100 µM | [10] > 100 µM | [12] > 100 µM | [13] > 100 µM | [14] > 100 µM | [15] > 100 µM | [16] 60.1 µM | [17] 71.6 µM | [18] > 100 µM | [19] > 100 µM

OCSc1nn(CO)c(=S)s1
inactive: [1] 20.7 µM | [2] 15.4 µM | [4] 18.7 µM | [5] 23.8 µM | [6] 14.3 µM | [7] 34.4 µM | [8] 23 µM | [9] 73.5 µM | [10] 26.9 µM | [11] 25.8 µM | [12] 21.7 µM | [13] 25.4 µM | [14] 20 µM | [15] 31.1 µM | [16] 23.9 µM | [17] 18.5 µM | [20] 24.4 µM | [18] 23.8 µM

C=C(C)[C@@H]1CCC2=C(CC[C@]3(C)[C@@H]([C@@H](CCC=C(C)C)C(=O)O)[C@H](O)C[C@@]23C)[C@@]1(C)CCC(=O)O [PORICOIC ACID G]
inactive: [1] 53.2 µM | [3] > 100 µM | [4] 47.4 µM | [5] 22.4 µM | [6] > 100 µM | [7] > 100 µM | [8] 70.3 µM | [9] > 100 µM | [10] 50.4 µM | [11] 46 µM | [12] 66.8 µM | [13] 88.7 µM | [14] 87.3 µM | [15] 83.6 µM | [16] > 100 µM | [17] > 100 µM | [20] 45.6 µM | [18] > 100 µM | [19] > 100 µM

N#Cc1nc(-c2cccnc2)oc1N
inactive: [1] > 100 µM | [3] 4.83 µM | [4] > 100 µM | [5] > 100 µM | [6] > 100 µM | [7] > 100 µM | [8] > 100 µM | [9] > 100 µM | [11] > 100 µM | [12] > 100 µM | [13] > 100 µM | [15] > 100 µM | [17] > 100 µM | [20] > 100 µM | [18] > 100 µM | [19] > 100 µM

COc1ccc2c(c1)CCC1=C/C(=N\NC(N)=O)CCC12C (configuration not stated)
inactive: [1] > 10 µM | [2] > 10 µM | [4] > 10 µM | [5] > 10 µM | [6] 7.1 µM | [7] > 10 µM | [9] > 10 µM | [10] > 10 µM | [11] > 10 µM | [12] > 10 µM | [13] > 10 µM | [14] > 10 µM | [15] > 10 µM | [16] > 10 µM | [17] > 10 µM | [20] > 10 µM | [18] > 10 µM

COC(C/C(=C/CO[Si](C(C)C)(C(C)C)C(C)C)C(=O)Nc1ccccc1I)OC
inactive: [1] 14.9 µM | [3] 36.6 µM | [4] 31 µM | [5] 28 µM | [6] 29.6 µM | [7] 28.2 µM | [8] 15.2 µM | [9] 63.8 µM | [10] 8.63 µM | [11] 18.4 µM | [12] 59.4 µM | [13] 6.15 µM | [14] 32.9 µM | [15] 22.2 µM | [16] 30.4 µM | [17] 63.8 µM | [20] 18.9 µM | [18] 13 µM | [19] > 100 µM

Cc1ccc(S(=O)(=O)N(CC(O)COc2ccccc2)c2ccc(F)cc2F)cc1 (configuration not stated)
inactive: [1] 34.8 µM | [3] 13.9 µM | [4] 20 µM | [5] 14.4 µM | [6] 17.3 µM | [7] 18.7 µM | [8] 15.5 µM | [9] 21.5 µM | [10] 17.2 µM | [11] 18.1 µM | [12] 15.8 µM | [13] 13.5 µM | [14] 13.9 µM | [15] 12.2 µM | [16] 17.2 µM | [17] 11.6 µM | [20] 12.8 µM | [18] 16.6 µM | [19] 15.3 µM

Cc1cc(C#N)c(Nc2ccccc2[N+](=O)[O-])s1
inactive: [1] 45.2 µM | [2] 32.5 µM | [3] 39.7 µM | [4] 36.1 µM | [5] 20.3 µM | [7] 26.4 µM | [10] 24.8 µM | [11] 41 µM | [12] 45.2 µM | [13] 22.6 µM | [14] 26.1 µM | [15] 77.8 µM | [16] 36.6 µM | [17] 89.3 µM | [20] 23.8 µM | [18] 17.7 µM | [19] 37.7 µM

Cc1cnc2c(c1)C(=O)N(c1ccc(Br)cc1)S2(=O)=O
inactive: [2] > 100 µM | [3] > 100 µM | [4] > 100 µM | [5] > 100 µM | [6] 24.5 µM | [7] > 100 µM | [8] > 100 µM | [9] > 100 µM | [10] > 100 µM | [11] > 100 µM | [12] > 100 µM | [13] > 100 µM | [14] > 100 µM | [15] > 100 µM | [16] > 100 µM | [17] 44.4 µM | [20] > 100 µM | [18] > 100 µM

C=C(C)C1Cc2c(cc(O)c3c(=O)c4c(oc23)C(O)Oc2cc(OC)c(OC)cc2-4)O1 (configuration not stated)
inactive: [1] > 10 µM | [2] > 10 µM | [3] > 10 µM | [4] > 10 µM | [5] > 10 µM | [9] > 10 µM | [10] > 10 µM | [11] > 10 µM | [12] > 10 µM | [13] > 10 µM | [14] > 10 µM | [15] > 10 µM | [16] > 10 µM | [17] > 10 µM | [20] > 10 µM | [18] > 10 µM | [19] > 10 µM

COc1cc(/C=N/N=C2NCCN2)ccc1O
inactive: [1] > 100 µM | [2] > 100 µM | [3] > 100 µM | [4] > 100 µM | [5] > 100 µM | [6] > 100 µM | [7] > 100 µM | [8] > 100 µM | [9] > 100 µM | [10] 68.5 µM | [11] > 100 µM | [12] > 100 µM | [13] > 100 µM | [14] > 100 µM | [16] > 100 µM | [17] > 100 µM | [20] > 100 µM | [18] > 100 µM

CCSC1=N/C(=C\c2ccco2)C(NN)=N1
inactive: [1] > 50 µM | [3] > 50 µM | [4] > 50 µM | [5] > 50 µM | [6] > 50 µM | [7] > 50 µM | [8] > 50 µM | [9] > 50 µM | [10] > 50 µM | [11] > 50 µM | [12] > 50 µM | [13] > 50 µM | [14] > 50 µM | [15] > 50 µM | [16] > 50 µM | [20] > 50 µM | [18] > 50 µM | [19] > 50 µM
